How the values were obtained:
cheatgrass = test: Test B preemergence/postemergence greenhouse plant response rating 0 to 10; type: in vivo, Bromus secalinus; details: 0 to 10 scale
Outline: (§1)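 Test chemicals were sprayed onto freshly planted seed and, concurrently, onto young plants between the one and four leaf stage. After a twelve- to sixteen-day greenhouse period, each species was visually compared with untreated controls.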

corn = test: as above; type: in vivo, Zea mays; details: 0 to 10 scale
Outline: as §1

cotton [1] = test: as above; type: in vivo, Gossypium hirsutum; details: 0 to 10 scale
Outline: as §1

lambsquarters [2] = test: as above; type: in vivo, Chenopodium album; details: 0 to 10 scale
Outline: as §1

rice = test: as above; type: in vivo, Oryza sativa; details: 0 to 10 scale
Outline: as §1

wheat = test: as above; type: in vivo, Triticum aestivum; details: 0 to 10 scale
Outline: as §1

wild oat = test: as above; type: in vivo, Avena fatua; details: 0 to 10 scale
Outline: as §1

bedstraw = test: Test C preemergence/postemergence greenhouse plant response rating 0 to 100; type: in vivo, Galium aparine; details: POSTEMERGENCE; for Plant response rating, Bedstraw: 0 to 100 scale
From the text: (§2) The compounds evaluated in this test were formulated in a non-phytoxic solvent and applied to the soil surface before plant seedlings emerged (preemergence application), to water that covered the soil surface (flood application), and to plants that were in the one-to-four leaf stage (postemergence application). A sandy loam soil was used for the preemergence and postemergence tests, while a silt loam soil was used in the flood test. Water depth was approximately 2.5 cm for the flood test and was maintained at this level for the duration of the test. Plant species in the preemergence and postemergence tests consisted of barley (Hordeum vulgare), bedstraw (Galium aparine), blackgrass (Alopecurus myosuroides), chickweed (Stellaria media), corn (Zea mays), cotton (Gossypium hirsutum), crabgrass (Digitaria sanguinalis), downy brome (Bromus tectorum), giant foxtail (Setaria faberii), lambsquarters (Chenopodium album), morningglory (Ipomoea hederacea), pigweed ([…]), rape (Brassica napus), ryegrass (Lolium multiflorum), sorghum (Sorghum bicolor), soybean (Glycine max), speedwell (Veronica persica), sugar beet (Beta vulgaris), velvetleaf (Abutilon theophrasti), wheat (Triticum aestivum), wild buckwheat (Polygonum convolvulus), and wild oat (Avena fatua). All plant species were planted one day before application of the compound for the preemergence portion-of this test. Plantings of these species were adjusted to produce plants of appropriate size for the post-emergence portion of the test. […] All plant species were grown using normal greenhouse practices. Visual evaluations of injury expressed on treated plants, when compared to untreated controls, were recorded approximately fourteen to twenty one days after application of the test compound. […] A dash (-) response means no test result.

cotton [3] = test: as above; type: in vivo, Gossypium hirsutum; details: POSTEMERGENCE; for Plant response rating, Cotton: 0 to 100 scale
From the text: as §2

crabgrass = test: as above; type: in vivo, Digitaria sanguinalis; details: POSTEMERGENCE; for Plant response rating, Crabgrass: 0 to 100 scale
From the text: as §2

downy brome = test: as above; type: in vivo, Bromus tectorum; details: POSTEMERGENCE; for Plant response rating Downy Brome: 0 to 100 scale
From the text: as §2

giant foxtail = test: as above; type: in vivo, Setaria faberii; details: POSTEMERGENCE; for Plant response rating, Giant foxtail: 0 to 100 scale
From the text: as §2

lambsquarters [4] = test: as above; type: in vivo, Chenopodium album; details: POSTEMERGENCE; for Plant response rating Lambsquarters: 0 to 100 scale
From the text: as §2

sorghum = test: as above; type: in vivo, Sorghum bicolor; details: POSTEMERGENCE; for Plant response rating, Sorghum: 0 to 100 scale
From the text: as §2

sugar beet = test: as above; type: in vivo, Beta vulgaris; details: POSTEMERGENCE; for Plant response rating, Sugar beet: 0 to 100 scale
From the text: as §2

velvetleaf = test: as above; type: in vivo, Abutilon theophrasti; details: POSTEMERGENCE; for Plant response rating, Velvetleaf: 0 to 100 scale
From the text: as §2

duck salad = test: Test C flood test plant response rating 0 to 100; type: in vivo, Heteranthera limosa; details: for Plant response rating (0 to 100), Duck salad: under POSTEMERGENCE head (flood test species); for Plant response rating Duck salad: flood test species listed under POSTEMERGENCE, 0 to 100 scale
From the text: as §2

barnyardgrass = test: Test C flood test plant response rating 0 to 100; type: in vivo, Echinochloa crus-galli; details: for Plant response rating (0 to 100), Barnyardgrass 2: under POSTEMERGENCE head (flood test species); for Plant response rating Barnyardgrass 2: flood test species listed under POSTEMERGENCE, 0 to 100 scale
From the text: as §2

CCOC(=O)COc1cc(-c2nn3c(c2Cl)CCCC3)c(F)cc1Cl [Compound 42]
Plant response rating, Cheatgrass (cheatgrass; POSTEMERGENCE, Rate 50 g/ha): 1
Plant response rating, Cheatgrass (cheatgrass; POSTEMERGENCE, Rate 200 g/ha): 3
Plant response rating, Cheatgrass (cheatgrass; PREEMERGENCE, Rate 50 g/ha): 0
Plant response rating, Cheatgrass (cheatgrass; Rate 200 g/ha, PREEMERGENCE): 0
Plant response rating, Corn (corn; POSTEMERGENCE, Rate 50 g/ha): 7
Plant response rating, Corn (corn; POSTEMERGENCE, Rate 200 g/ha): 9
Plant response rating, Corn (corn; PREEMERGENCE, Rate 50 g/ha): 0
Plant response rating, Corn (corn; Rate 200 g/ha, PREEMERGENCE): 0
Plant response rating, Cotton (cotton [1]; POSTEMERGENCE, Rate 50 g/ha): 10
Plant response rating, Cotton (cotton [1]; POSTEMERGENCE, Rate 200 g/ha): 10
Plant response rating, Cotton (cotton [1]; PREEMERGENCE, Rate 50 g/ha): 0
Plant response rating, Cotton (cotton [1]; Rate 200 g/ha, PREEMERGENCE): 0
Plant response rating, Lambsquarter (lambsquarters [2]; POSTEMERGENCE, Rate 50 g/ha): 9
Plant response rating, Lambsquarter (lambsquarters [2]; PREEMERGENCE, Rate 50 g/ha): 9
Plant response rating, Lambsquarter (lambsquarters [2]; Rate 200 g/ha, POSTEMERGENCE): 10
Plant response rating, Lambsquarter (lambsquarters [2]; Rate 200 g/ha, PREEMERGENCE): 10
Plant response rating, Rice (rice; POSTEMERGENCE, Rate 50 g/ha): 4
Plant response rating, Rice (rice; PREEMERGENCE, Rate 50 g/ha): 0
Plant response rating, Rice (rice; Rate 200 g/ha, POSTEMERGENCE): 6
Plant response rating, Rice (rice; Rate 200 g/ha, PREEMERGENCE): 2
Plant response rating, Wheat (wheat; POSTEMERGENCE, Rate 50 g/ha): 2
Plant response rating, Wheat (wheat; PREEMERGENCE, Rate 50 g/ha): 0
Plant response rating, Wheat (wheat; Rate 200 g/ha, POSTEMERGENCE): 5
Plant response rating, Wheat (wheat; Rate 200 g/ha, PREEMERGENCE): 0
Plant response rating, Wild oat (wild oat; POSTEMERGENCE, Rate 50 g/ha): 1
Plant response rating, Wild oat (wild oat; PREEMERGENCE, Rate 50 g/ha): 0
Plant response rating, Wild oat (wild oat; Rate 200 g/ha, POSTEMERGENCE): 3
Plant response rating, Bedstraw (bedstraw; 62 g/ha): 100
Plant response rating, Bedstraw (bedstraw; 125 g/ha): 100
Plant response rating (0 to 100), Bedstraw (bedstraw; Rate 16 g/ha): 80
Plant response rating (0 to 100), Bedstraw (bedstraw; Rate 31 g/ha): 90
Plant response rating, Cotton (cotton [3]; 62 g/ha): 100
Plant response rating, Cotton (cotton [3]; 125 g/ha): 100
Plant response rating (0 to 100), Cotton (cotton [3]; Rate 16 g/ha): 100
Plant response rating (0 to 100), Cotton (cotton [3]; Rate 31 g/ha): 100
Plant response rating, Crabgrass (crabgrass; 62 g/ha): 10
Plant response rating, Crabgrass (crabgrass; 125 g/ha): 40
Plant response rating (0 to 100), Crabgrass (crabgrass; Rate 16 g/ha): 10
Plant response rating (0 to 100), Crabgrass (crabgrass; Rate 31 g/ha): 10
Plant response rating Downy Brome (downy brome; 62 g/ha): 30
Plant response rating Downy Brome (downy brome; 125 g/ha): 50
Plant response rating (0 to 100), Downy Brome (downy brome; Rate 16 g/ha): 20
Plant response rating (0 to 100), Downy Brome (downy brome; Rate 31 g/ha): 30
Plant response rating, Giant foxtail (giant foxtail; 62 g/ha): 50
Plant response rating, Giant foxtail (giant foxtail; 125 g/ha): 70
Plant response rating (0 to 100), Giant foxtail (giant foxtail; Rate 16 g/ha): 30
Plant response rating (0 to 100), Giant foxtail (giant foxtail; Rate 31 g/ha): 30
Plant response rating Lambsquarters (lambsquarters [4]; 62 g/ha): 100
Plant response rating Lambsquarters (lambsquarters [4]; 125 g/ha): 100
Plant response rating (0 to 100), Lambsquarters (lambsquarters [4]; Rate 16 g/ha): 100
Plant response rating (0 to 100), Lambsquarters (lambsquarters [4]; Rate 31 g/ha): 100
Plant response rating, Sorghum (sorghum; 62 g/ha): 60
Plant response rating, Sorghum (sorghum; 125 g/ha): 70
Plant response rating (0 to 100), Sorghum (sorghum; Rate 16 g/ha): 40
Plant response rating (0 to 100), Sorghum (sorghum; Rate 31 g/ha): 50
Plant response rating, Sugar beet (sugar beet; 62 g/ha): 100
Plant response rating, Sugar beet (sugar beet; 125 g/ha): 100
Plant response rating (0 to 100), Sugar beet (sugar beet; Rate 16 g/ha): 100
Plant response rating (0 to 100), Sugar beet (sugar beet; Rate 31 g/ha): 100
Plant response rating, Velvetleaf (velvetleaf; 62 g/ha): 100
Plant response rating, Velvetleaf (velvetleaf; 125 g/ha): 100
Plant response rating (0 to 100), Velvetleaf (velvetleaf; Rate 16 g/ha): 100
Plant response rating (0 to 100), Velvetleaf (velvetleaf; Rate 31 g/ha): 100
Plant response rating (0 to 100), Duck salad (duck salad; Rate 16 g/ha): 0
Plant response rating (0 to 100), Duck salad (duck salad; Rate 31 g/ha): 0
Plant response rating Duck salad (duck salad; 62 g/ha): 0
Plant response rating Duck salad (duck salad; 125 g/ha): 20
Plant response rating (0 to 100), Barnyardgrass 2 (barnyardgrass; Rate 16 g/ha): 0
Plant response rating (0 to 100), Barnyardgrass 2 (barnyardgrass; Rate 31 g/ha): 20
Plant response rating Barnyardgrass 2 (barnyardgrass; 62 g/ha): 40
Plant response rating Barnyardgrass 2 (barnyardgrass; 125 g/ha): 60
